Source: PubChem BioAssay (NCI)
Several values for one entry are separate records, joined by “and”; a condition that tells them apart may be missing. Equal values may be shown once.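 Cultured in 96-well plates, cells were exposed to test compound for 48 hours across five concentrations. GI50 is the concentration that inhibits growth by half. Definition used: TGI = concentration required for complete inhibition of growth.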

What was measured:
Experiment in all cases: NCI anticancer screen, dose series, 48 h
LOX IMVI melanoma = system: LOX IMVI melanoma
SF-539 CNS = system: SF-539 CNS
COLO 205 colon = system: COLO 205 colon
DU-145 prostate = system: DU-145 prostate
IGROV1 ovarian = system: IGROV1 ovarian
SF-268 CNS = system: SF-268 CNS
MDA-MB-231 breast = system: MDA-MB-231 breast
A498 renal = system: A498 renal
SNB-19 CNS = system: SNB-19 CNS
NCI/ADR-RES ovarian = system: NCI/ADR-RES ovarian
SK-MEL-5 melanoma = system: SK-MEL-5 melanoma
RPMI-8226 leukemia = system: RPMI-8226 leukemia
NCI-H522 lung = system: NCI-H522 lung
MCF7 breast = system: MCF7 breast

SMILES | TGI (LOX IMVI melanoma) [µM] | TGI (SF-539 CNS) [µM] | TGI (COLO 205 colon) [µM] | TGI (DU-145 prostate) | TGI (IGROV1 ovarian) | TGI (SF-268 CNS) | TGI (MDA-MB-231 breast) | TGI (A498 renal) | TGI (SNB-19 CNS) | TGI (NCI/ADR-RES ovarian) [µM] | TGI (SK-MEL-5 melanoma) [µM] | TGI (RPMI-8226 leukemia) | TGI (NCI-H522 lung) [µM] | TGI (MCF7 breast) | GI50 (DU-145 prostate) | GI50 (IGROV1 ovarian) | GI50 (SF-268 CNS) | GI50 (MDA-MB-231 breast) | GI50 (A498 renal) | GI50 (NCI/ADR-RES ovarian) [µM]
c1ccc(-c2sc(-c3ccccc3)c3c2C2CCC3C2)cc1 | > 100 | 67.7 | 38.1 | > 100 µM | > 100 µM | > 100 µM | > 100 µM | > 100 µM | > 100 µM | > 100 | 49.7 | 44.9 µM | 60.5 | – | – | – | – | – | – | –
Cc1ccc(N(C)S(=O)(=O)c2ccccc2)cc1 | > 100 | > 100 | > 100 | > 100 µM | > 100 µM | > 100 µM | > 100 µM | – | > 100 µM | > 100 | > 100 | > 100 µM | > 100 | > 100 µM | – | – | – | – | – | –
C[N+](C)(C)CC(=O)N/N=C/c1oc(-c2cccc([N+](=O)[O-])c2)c(-c2cccc([N+](=O)[O-])c2)c1[N+](=O)[O-] | – | > 100 | > 100 | – | > 100 µM | > 100 µM | – | > 100 µM | > 100 µM | – | > 100 | 55.3 µM | > 100 | – | – | – | – | – | – | –
Cc1ccc(O)c(-c2cc(-c3ccccc3)nc(/N=C\c3ccccc3)n2)c1 | > 100 | > 100 | – | > 100 µM | 44 µM | > 100 µM | > 100 µM | – | > 100 µM | 85.6 | > 100 | – | > 100 | > 100 µM | – | – | – | – | – | –
COc1cc(CC(C)N[C@@H](C)c2ccccc2)cc(OC)c1 (stereo not given in full) | – | > 100 | – | 25.2 µM and > 100 µM | 24.3 µM and > 100 µM | 25.8 µM and > 100 µM | 27.2 µM and > 100 µM | 21 µM and > 100 µM | 21.3 µM and > 100 µM | > 100 | – | 11.6 µM and > 100 µM | > 100 | 20.1 µM and > 100 µM | 12.6 µM and > 100 µM | 10.6 µM and > 100 µM | 12.3 µM and > 100 µM | 12.8 µM and > 100 µM | 7.9 µM and 41.8 µM | > 100
N=C1/C(=C/c2ccccc2)C(=O)N=C2SC=NN12 | > 100 | 88.5 | > 100 | > 100 µM | > 100 µM | > 100 µM | > 100 µM | – | > 100 µM | > 100 | > 100 | > 100 µM | > 100 | > 100 µM | – | – | – | – | – | –
O=C1CCCC(=O)N1n1c(Cc2ccc(Cl)cc2)n[nH]c1=O | > 100 | > 100 | > 100 | > 100 µM | > 100 µM | > 100 µM | > 100 µM | – | > 100 µM | > 100 | > 100 | > 100 µM | > 100 | > 100 µM | – | – | – | – | – | –
Cc1ccc(S(=O)(=O)Nn2c(C)cc3ccc(S(=O)(=O)Nc4ccccc4[N+](=O)[O-])cc3c2=O)cc1 | > 100 | > 100 | 44.1 | > 100 µM | > 100 µM | > 100 µM | > 100 µM | – | > 100 µM | > 100 | – | > 100 µM | > 100 | > 100 µM | – | – | – | – | – | –
CCCC1=NC(C(F)(F)F)(C(F)(F)F)N=C(N2CCOCC2)O1 | > 100 | > 100 | > 100 | > 100 µM | > 100 µM | > 100 µM | > 100 µM | – | > 100 µM | > 100 | > 100 | > 100 µM | – | > 100 µM | – | – | – | – | – | –
Cc1no[n+]([O-])c1/C=N/NS(=O)(=O)c1ccccc1 | – | > 100 | > 100 | – | > 100 µM | > 100 µM | – | > 100 µM | > 100 µM | – | > 100 | > 100 µM | > 100 | – | – | – | – | – | – | –
Cc1ccc(C)c(NC(=O)/C(=N\N)C(c2cnc3ccc([N+](=O)[O-])cc3n2)[N+](=O)[O-])c1 (stereo not given) | > 100 | > 100 | – | – | > 100 µM | > 100 µM | > 100 µM | > 100 µM | – | > 100 | > 100 | > 100 µM | > 100 | > 100 µM | – | – | – | – | – | –
O=C1C=Cc2c1csc2Br | 60.2 | – | > 100 | > 100 µM | > 100 µM | > 100 µM | > 100 µM | – | > 100 µM | > 100 | > 100 | – | 38.4 | 95.9 µM | – | – | – | – | – | –
CC1(Br)S(=O)(=O)OCCOS1(=O)=O | > 100 | > 100 | > 100 | – | > 100 µM | > 100 µM | – | > 100 µM | > 100 µM | – | > 100 | > 100 µM | > 100 | – | – | – | – | – | – | –
N#Cc1c(N)nc2c(N=Nc3ccccc3)c(N)nn2c1Nc1ccccc1 | 10.5 | 47.2 | 30.2 | 39.8 µM | 29.3 µM | 56.9 µM | 47.6 µM | 59.1 µM | 39.9 µM | 53.9 | 32.6 | 16.2 µM | 39.9 | – | – | – | – | – | – | –
COc1ccc(C(=O)/C=C/c2ccc(OCC#N)cc2)cc1OC | – | 36.9 | 24.2 | 23.8 µM | > 100 µM | 85.3 µM | 42.2 µM | – | 29.9 µM | 50.2 | 32.2 | – | 32.5 | 16 µM | – | – | – | – | – | –
NC(CCC(=O)NC(CSC(=O)N(O)c1ccc(Cl)cc1)C(=O)NCC(=O)O)C(=O)O (stereo not given) | – | > 0.5 | > 0.5 | > 0.5 µM | > 0.5 µM | > 0.5 µM | > 0.5 µM | – | > 0.5 µM | > 0.5 | > 0.5 | > 0.5 µM | > 0.5 | > 0.5 µM | – | – | – | – | – | –
O=C(O)c1cccc(S(=O)(=O)NN2C(=O)CSC2c2ccccc2Cl)c1 (stereo not given) | > 100 | > 100 | > 100 | > 100 µM | > 100 µM | > 100 µM | > 100 µM | – | > 100 µM | – | > 100 | > 100 µM | > 100 | > 100 µM | – | – | – | – | – | –
COC(=O)NN/C=C(\C=Nc1ccccc1)[N+](=O)[O-] | > 100 | – | > 100 | – | > 100 µM | > 100 µM | – | – | > 100 µM | – | > 100 | > 100 µM | > 100 | – | – | – | – | – | – | –
